Assay results taken from US10076519B2 (CYTOKINETICS, INC., priority 2010, dated 2018).

System: rabbit skeletal myofibrils (fast skeletal myofibrils)
Test: Activation of fast skeletal myofibrils (PUMA assay, PK/LDH-coupled ATPase at pCa25)
Assay type: biochemical
Conditions: AC1.4 determined according to the procedure of Example 39; reported as class symbols
In short: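 ATPase activity of Triton-washed rabbit skeletal myofibrils, roughly 90% fast fibres, tracked by NADH loss at 340 nm through a PK/LDH-coupled ADP-regenerating system. Calcium set to 25% of maximal activity (pCa25), in PIPES 12 mM pH 6.8 with 2 mM MgCl2 and 1 mM DTT; AC1.4 reported.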

Row | Structure (SMILES) | Mean AC1.4
1 | CC(C)(CNc1ccc(-c2ccc(C(=O)O)c(F)c2)nn1)c1ccc(F)cc1 [2-fluoro-4-(6-{[2-(4-fluorophenyl)-2-methylpropyl]amino}pyridazin-3-yl)benzoic acid] | D (D=>20 uM)

Same assay, conditions: median AC1.4 class, procedure of Example 39

Row | Structure (SMILES) | Mean AC1.4
2 | NC(=O)c1c[nH]c(-c2ccc(NCC3(c4ncccc4F)CCC3)nn2)n1 [2-[6-({[(3-fluoro-2-pyridyl)cyclobutyl]methyl}ami-no)pyridazin-3-yl]imidazole-4-carboxamide] | B (B=1-10 uM)
3 | NC(=O)c1ccnc(-c2ccc(NCC3(c4ncccc4F)CCC3)nn2)n1 [2-[6-({[(3-fluoro-2-pyridyl)cyclobutyl]methyl}ami-no)pyridazin-3-yl]pyrimidine-4-carboxamide] | A (A=<1 uM)
4 | O=C1NCc2cc(-c3ccc(NCC4(c5ncccc5F)CCC4)nn3)sc21 [2-[6-({[(3-fluoro-2-pyridyl)cyclobutyl]methyl}ami-no)pyridazin-3-yl]thiopheno[2,3-c]3-pyrrolin-6-one] | B (B=1-10 uM)
5 | NC(=O)CNCc1cnc(-c2ccc(NCC3(c4ncccc4F)CCC3)nn2)s1 [2-[({2-[6-({[(3-fluoro-2-pyridyl)cyclobutyl]methyl}ami-no)pyridazin-3-yl]-1,3-thiazol-5-yl}methyl)amino]acetamide] | B (B=1-10 uM)
6 | CC(C)(N)C(=O)NCc1cnc(-c2ccc(NCC3(c4ncccc4F)CCC3)nn2)s1 [2-amino-N-({2-[6-({[(3-fluoro(2-pyridyl))cyclobutyl]methyl}ami-no)pyridazin-3-yl](1,3-thiazol-5-yl)}methyl)-2-methylpropanamide] | A (A=<1 uM)
7 | NCC(=O)NCc1cnc(-c2ccc(NCC3(c4ncccc4F)CCC3)nn2)s1 [2-amino-N-({2-[6-({[(3-fluoro(2-pyridyl))cyclobutyl]methyl}ami-no)pyridazin-3-yl](1,3-thiazol-5-yl)}methyl)acetamide] | A (A=<1 uM)
8 | NC(=O)Cc1cnc(-c2ccc(NCC3(c4ncccc4F)CCC3)nn2)s1 [2-{2-[6-({[(3-fluoro-2-pyridyl)cyclobutyl]methyl}ami-no)pyridazin-3-yl]-1,3-thiazol-5-yl}acetamide] | B (B=1-10 uM)
9 | CC(C)(O)c1cnc(-c2ccc(NCC3(c4ncccc4F)CCC3)nn2)s1 [2-{2-[6-({[(3-fluoro-2-pyridyl)cyclobutyl]methyl}ami-no)pyridazin-3-yl]-1,3-thiazol-5-yl}propan-2-ol] | C (C=10-20 uM)
10 | NC(=O)Cn1nnc(-c2ccc(NCC3(c4ncccc4F)CCC3)nn2)n1 [2-{5-[6-({[(3-fluoro-2-pyridyl)cyclobutyl]methyl}ami-no)pyridazin-3-yl]-1,2,3,4-tetraazol-2-yl}acetamide] | D (D=>20 uM)
11 | CC(C)(CNc1ccc(-c2ccc3[nH]nc(NCCO)c3c2)nn1)c1ccc(F)cc1 [2-{[5-(6-{[2-(4-fluorophenyl)-2-methylpropyl]amino}pyridazin-3-yl)-1H-indazol-3-yl]amino}ethan-1-ol] | A (A=<1 uM)

Same assay, conditions: median AC1.4 reported as class; procedure of Example 39

Row | Structure (SMILES) | Mean AC1.4
12 | O=C(O)C1CCc2sc(-c3ccc(NCC4(c5ncccc5F)CCC4)nn3)nc21 (stereo not shown) [2-[6-({[(3-fluoro-2-pyridyl)cyclobutyl]methyl}ami-no)pyridazin-3-yl]-4,5,6-trihydrocyclopenta[1,2-d]1,3-thiazole-4-carboxylic acid] | D (D=>20 uM)
13 | OCCNCc1cnc(-c2ccc(NCC3(c4ncccc4F)CCC3)nn2)s1 [2-[({2-[6-({[(3-fluoro-2-pyridyl)cyclobutyl]methyl}ami-no)pyridazin-3-yl]-1,3-thiazol-5-yl}methyl)amino]ethan-1-ol] | B (B=1-10 uM)
14 | CN(Cc1cnc(-c2ccc(NCC3(c4ncccc4F)CCC3)nn2)s1)C(=O)C(C)(C)N [2-amino-N-({2-[6-({[(3-fluoro(2-pyridyl))cyclobutyl]methyl}ami-no)pyridazin-3-yl](1,3-thiazol-5-yl)}methyl)-2-methyl-N-methylpropanamide] | A (A=<1 uM)
15 | CC(C)(N)C(=O)NCc1cnc(-c2ccc(NCC(C)(C)c3ncccc3Cl)nn2)s1 [2-amino-N-{[2-(6-{[2-(3-chloro(2-pyridyl))-2-methylpropyl]amino}pyridazin-3-yl)(1,3-thiazol-5-yl)]methyl}-2-methylpropanamide] | A (A=<1 uM)
16 | O=C(O)c1cc(-c2ccc(NC[C@]3(c4ncccc4F)C[C@H](F)C3)nn2)ccc1F [2-fluoro-5-[6-({[3-fluoro-1-(3-fluoro(2-pyridyl))cyclobutyl]methyl}ami-no)pyridazin-3-yl]benzoic acid] | B (B=1-10 uM)
17 | NC(=O)Cc1cnc(-c2ccc(NC[C@]3(c4ncccc4Cl)C[C@H](F)C3)nn2)s1 [2-{2-[6-({[1-(3-chloro(2-pyridyl))-3-fluorocyclobutyl]methyl}ami-no)pyridazin-3-yl]-1,3-thiazol-5-yl}acetamide] | B (B=1-10 uM)
18 | CNC(=O)Cc1cnc(-c2ccc(NC[C@]3(c4ncccc4Cl)C[C@H](F)C3)nn2)s1 [2-{2-[6-({[1-(3-chloro(2-pyridyl))-3-fluorocyclobutyl]methyl}amino)pyr-idazin-3-yl](1,3-thiazol-5-yl)}-N-methylacetamide] | B (B=1-10 uM)
19 | NC(=O)Cc1cnc(-c2ccc(NC[C@]3(c4ncccc4F)C[C@H](F)C3)nn2)s1 [2-{2-[6-({[3-fluoro-1-(3-fluoro(2-pyridyl))cyclobutyl]methyl}ami-no)pyridazin-3-yl]-1,3-thiazol-5-yl}acetamide] | B (B=1-10 uM)
20 | O=C(O)Cc1cnc(-c2ccc(NC[C@]3(c4ncccc4F)C[C@H](F)C3)nn2)s1 [2-{2-[6-({[3-fluoro-1-(3-fluoro(2-pyridyl))cyclobutyl]methyl}ami-no)pyridazin-3-yl]-1,3-thiazol-5-yl}acetic acid] | B (B=1-10 uM)
21 | CNC(=O)Cc1cnc(-c2ccc(NCC3(c4ncccc4Cl)CCC3)nn2)s1 [2-{2-[6-({[(3-chloro(2-pyridyl))cyclobutyl]methyl}ami-no)pyridazin-3-yl](1,3-thiazol-5-yl)}-N-methylacetamide] | A (A=<1 uM)
22 | NC(=O)Cc1cnc(-c2ccc(NCC3(c4ncccc4Cl)CCC3)nn2)s1 [2-{2-[6-({[(3-chloro-2-pyridyl)cyclobutyl]methyl}ami-no)pyridazin-3-yl]-1,3-thiazol-5-yl}acetamide] | A (A=<1 uM)
23 | CC(C)(C(N)=O)c1cnc(-c2ccc(NCC3(c4ncccc4F)CCC3)nn2)s1 [2-{2-[6-({[(3-fluoro(2-pyridyl))cyclobutyl]methyl}ami-no)pyridazin-3-yl](1,3-thiazol-5-yl)}-2-methylpropanamide] | D (D=>20 uM)
24 | CC(C)(C#N)c1cnc(-c2ccc(NCC3(c4ncccc4F)CCC3)nn2)s1 [2-{2-[6-({[(3-fluoro(2-pyridyl))cyclobutyl]methyl}ami-no)pyridazin-3-yl](1,3-thiazol-5-yl)}-2-methylpropanenitrile] | D (D=>20 uM)
25 | CN(C)C(=O)Cc1cnc(-c2ccc(NCC3(c4ncccc4F)CCC3)nn2)s1 [2-{2-[6-({[(3-fluoro(2-pyridyl))cyclobutyl]methyl}ami-no)pyridazin-3-yl](1,3-thiazol-5-yl)}-N,N-dimethylacetamide] | B (B=1-10 uM)
26 | CNC(=O)Cc1cnc(-c2ccc(NCC3(c4ncccc4F)CCC3)nn2)s1 [2-{2-[6-({[(3-fluoro(2-pyridyl))cyclobutyl]methyl}ami-no)pyridazin-3-yl](1,3-thiazol-5-yl)}-N-methylacetamide] | B (B=1-10 uM)
27 | CNC(=O)Cc1cnc(-c2nnc(NCC3(c4ncccc4F)CCC3)cc2C)s1 [2-{2-[6-({[(3-fluoro(2-pyridyl))cyclobutyl]methyl}amino)-4-methylpyridazin-3-yl](1,3-thiazol-5-yl)}-N-methylacetamide] | B (B=1-10 uM)
28 | Cc1cc(NCC2(c3ncccc3F)CCC2)nnc1-c1ncc(CC(N)=O)s1 [2-{2-[6-({[(3-fluoro(2-pyridyl))cyclobutyl]methyl}amino)-4-methylpyridazin-3-yl]-1,3-thiazol-5-yl}acetamide] | B (B=1-10 uM)
29 | Cc1cc(NCC2(c3ncccc3F)CCC2)nnc1-c1ncc(CC(=O)O)s1 [2-{2-[6-({[(3-fluoro(2-pyridyl))cyclobutyl]methyl}amino)-4-methylpyridazin-3-yl]-1,3-thiazol-5-yl}acetic acid] | B (B=1-10 uM)
30 | NC(=O)Cc1csc(-c2ccc(NCC3(c4ncccc4F)CCC3)nn2)n1 [2-{2-[6-({[(3-fluoro-2-pyridyl)cyclobutyl]methyl}ami-no)pyridazin-3-yl]-1,3-thiazol-4-yl}acetamide] | D (D=>20 uM)
31 | O=C(O)Cc1cnc(-c2ccc(NCC3(c4ncccc4F)CCC3)nn2)s1 [2-{2-[6-({[(3-fluoro-2-pyridyl)cyclobutyl]methyl}ami-no)pyridazin-3-yl]-1,3-thiazol-5-yl}acetic acid] | B (B=1-10 uM)
32 | NC(=O)Cc1ccc(F)c(-c2ccc(NCC3(c4ncccc4F)CCC3)nn2)c1 [2-{4-fluoro-3-[6-({[(3-fluoro(2-pyridyl))cyclobutyl]methyl}ami-no)pyridazin-3-yl]phenyl}acetamide] | B (B=1-10 uM)
33 | NC(=O)c1csc(NC(=O)c2ccc(NCC3(c4ncccc4F)CCC3)nn2)n1 [2-{[6-({[(3-fluoro-2-pyridyl)cyclobutyl]methyl}ami-no)pyridazin-3-yl]carbonylamino}-1,3-thiazole-4-carboxamide] | A (A=<1 uM)
34 | NC(=O)C1CCCC1NC(=O)c1ccc(NCC2(c3ncccc3F)CCC2)nn1 (stereo not shown) [2-{[6-({[(3-fluoro-2-pyridyl)cyclobutyl]methyl}ami-no)pyridazin-3-yl]carbonylamino}cyclopentane-carboxamide] | D (D=>20 uM)
